Laboratory results: ChEMBL document CHEMBL1137556, “Synthetic studies of neoclerodane diterpenes from Salvia divinorum: exploration of the 1-position” (Bioorg Med Chem Lett, 2007)
pEC50: −log10 of the molar value.

Key:
[1] = target: T1, Kappa-type opioid receptor (Homo sapiens, UniProt P41145)
Description: Antagonist activity at human cloned kappa opioid receptor assessed as inhibition of DAMGO-stimulated [35S]GTP-gamma-S binding

[2] = target: Delta-type opioid receptor (Homo sapiens) (UniProt P41143)
Description: Antagonist activity at human cloned delta opioid receptor assessed as inhibition of DPDPE-stimulated [35S]GTPgammaS binding

[3] = target: T1, Kappa-type opioid receptor; remark: listed apart in the source
Description: Antagonist activity at human cloned kappa opioid receptor assessed as inhibition of U69,593-stimulated [35S]GTP-gamma-S binding

[4] = target: T1, Kappa-type opioid receptor; assay: Efficacy at human kappa opioid receptor by [35S]GTPgammaS binding assay relative to U69,593; format: functional
[5] = target: T1, Kappa-type opioid receptor; assay: Agonist activity at human kappa opioid receptor by [35S]GTPgammaS binding assay; format: functional
[6] = target: T1, Kappa-type opioid receptor; assay: Agonist activity at human kappa opioid receptor assessed as inhibition of Galpha-16-induced calcium flux; format: functional
[7] = target: T1, Kappa-type opioid receptor; assay: Efficacy at human kappa opioid receptor assessed as inhibition of Galpha-16-induced calcium flux relative to U69,593; format: functional

Chain of Delta-type opioid receptor (Homo sapiens) (P41143 whole entry): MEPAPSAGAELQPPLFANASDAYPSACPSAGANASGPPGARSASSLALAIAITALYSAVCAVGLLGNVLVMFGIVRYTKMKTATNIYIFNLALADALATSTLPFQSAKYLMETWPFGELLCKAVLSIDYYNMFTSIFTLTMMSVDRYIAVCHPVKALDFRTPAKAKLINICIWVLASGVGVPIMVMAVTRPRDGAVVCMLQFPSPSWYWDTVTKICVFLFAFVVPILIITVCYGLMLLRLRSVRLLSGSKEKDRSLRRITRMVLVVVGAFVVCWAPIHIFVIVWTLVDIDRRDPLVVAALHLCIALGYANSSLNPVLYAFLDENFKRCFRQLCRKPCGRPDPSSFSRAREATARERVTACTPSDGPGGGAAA
T1 sequence (P41145 whole entry): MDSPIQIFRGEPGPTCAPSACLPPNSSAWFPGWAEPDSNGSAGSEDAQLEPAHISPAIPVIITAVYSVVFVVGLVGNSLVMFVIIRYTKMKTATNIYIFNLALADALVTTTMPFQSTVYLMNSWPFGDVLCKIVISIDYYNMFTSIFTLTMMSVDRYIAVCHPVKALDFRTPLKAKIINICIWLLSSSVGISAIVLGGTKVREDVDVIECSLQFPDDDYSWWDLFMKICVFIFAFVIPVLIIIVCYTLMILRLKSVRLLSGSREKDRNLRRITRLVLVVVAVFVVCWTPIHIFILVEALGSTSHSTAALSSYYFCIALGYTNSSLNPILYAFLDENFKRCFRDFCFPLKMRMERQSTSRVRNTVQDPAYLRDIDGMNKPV

Q: Which Ke [1] does the source give for `COC(=O)[C@@H]1C[C@H](OC(=O)c2ccccc2)C=C2[C@@]1(C)CC[C@H]1C(=O)O[C@H](c3ccoc3)C[C@]21C` here?
A: 1740 nM

Q: And the Ke [2]?
A: 2300 nM

Q: What about the Ke [3] of the same molecule?
A: 580 nM

Q: With `COC(=O)[C@@H]1C[C@H](OC(C)=O)[C@H](OS(C)(=O)=O)[C@H]2[C@@]1(C)CC[C@H]1C(=O)O[C@H](c3ccoc3)C[C@]21C` [1-ALPHA-MESYLOXYSALVINORIN A] as the molecule, how does the Emax [4] read?
A: 95%

Q: And the pEC50 [5]?
A: 5.57

Q: Which Ke [1] does the source give for `COC(=O)[C@@H]1C[C@H](OC(=O)c2ccccc2)C[C@H]2[C@@]1(C)CC[C@H]1C(=O)O[C@H](c3ccoc3)C[C@]21C` here?
A: 4700 nM

Q: What about the Ke [2] of the same molecule?
A: 8780 nM

Q: What about the Ke [3] of the same molecule?
A: 580 nM

Q: For `COC(=O)[C@@H]1C[C@H](OC(=O)c2ccccc2)[C@H](O)[C@H]2[C@@]1(C)CC[C@H]1C(=O)O[C@H](c3ccoc3)C[C@]21C`, which Ke [1] is on record?
A: 1830 nM

Q: What about the Ke [2] of the same molecule?
A: 2900 nM

Q: What about the Ke [3] of the same molecule?
A: 1050 nM

Q: Which results are given for `COC(=O)[C@@H]1C[C@H](OC(C)=O)C[C@H]2[C@@]1(C)CC[C@H]1C(=O)O[C@H](c3ccoc3)C[C@]21C`?
A: Emax [4]: 49%; pEC50 [6]: 8.48; Ke [1]: 170 nM; Ke [2]: 100 nM; pEC50 [5]: 6.55; Emax [7]: 93%

Q: Which Ke [1] does the source give for `COC(=O)[C@@H]1C[C@H](OC(C)=O)[C@H](O)[C@H]2[C@@]1(C)CC[C@H]1C(=O)O[C@H](c3ccoc3)C[C@]21C` here?
A: 2300 nM

Q: What about the Ke [2] of the same molecule?
A: 1790 nM

Q: What about the Ke [3] of the same molecule?
A: 240 nM

Q: For `COC(=O)[C@@H]1CC(=O)C=C2[C@@]1(C)CC[C@H]1C(=O)O[C@H](c3ccoc3)C[C@]21C`, which Ke [1] is on record?
A: 700 nM

Q: And the Ke [2]?
A: 3500 nM

Q: And the Ke [3]?
A: 460 nM

Q: What does the source list for `COC(=O)[C@@H]1C[C@H](OC(C)=O)C=C2[C@@]1(C)CC[C@H]1C(=O)O[C@H](c3ccoc3)C[C@]21C`?
A: Ke [1]: 200 nM; Ke [2]: 400 nM; Ke [3]: 570 nM
